Assay results: PubChem BioAssay AID1919013 (Molecular Pharmacology Branch, DTP, NCI, 2023)

Test system: LG0703-F498-PDC complex spheroid growth
Assay: Anticancer human tumor LG0703-F498-PDC patient-derived lung adenocarcinoma cell line growth inhibition [AhR]
Details: for IC50: curve of first compound; for viability, T/C: stronger effect = lower value
Outline: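 Spheroids combined tumor cells with HUVEC endothelial cells and human MSCs as stroma. AhR antagonists were paired with standard or investigational drugs, each dosed in half-log steps down from near clinical Cmax, or from 10 microM where Cmax was unknown.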
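Also: luminescence taken as a proxy for viable cell amount.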
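For viability, T/C in this document: percent of DMSO vehicle control where 100% means growth equal to vehicle.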

How did the IC50 (second compound 0.1 µM) turn out when `CC(C)c1c(-c2ccccc2)nc2c(C#N)c[nH]n2c1=O` + Cc1ccccc1N=Nc1ccc(NC(=O)c2ccnn2C)c(C)c1 was run?
Its IC50 is greater than 10 µM.

And the IC50 (second compound 0.316 µM)?
Its IC50 is greater than 10 µM.

And the IC50 (second compound 1 µM)?
The IC50 was greater than 10 µM.

What about the IC50 (second compound 3.16 µM) of the same compound?
Its IC50 is greater than 10 µM.

And the IC50 (second compound 10 µM)?
The IC50 was greater than 10 µM.

What about the viability, T/C (second compound 0.1 µM, first compound 0.0316 µM) of the same compound?
Its viability, T/C is 95.3%.

And the viability, T/C (second compound 0.1 µM, first compound 0.1 µM)?
The viability, T/C was 88.1%.

And the viability, T/C (second compound 0.1 µM, first compound 0.316 µM)?
The viability, T/C was 94.9%.

And the viability, T/C (second compound 0.1 µM, first compound 1 µM)?
Its viability, T/C is 98.5%.

And the viability, T/C (second compound 0.1 µM, first compound 3.16 µM)?
Its viability, T/C is 112%.

And the viability, T/C (second compound 0.1 µM, first compound 10 µM)?
Its viability, T/C is 102%.

What about the viability, T/C (second compound 0.316 µM, first compound 0.0316 µM) of the same compound?
The viability, T/C was 97.4%.

What about the viability, T/C (second compound 0.316 µM, first compound 0.1 µM) of the same compound?
The viability, T/C was 85.6%.

And the viability, T/C (second compound 0.316 µM, first compound 0.316 µM)?
The viability, T/C was 85.5%.

What about the viability, T/C (second compound 0.316 µM, first compound 1 µM) of the same compound?
The viability, T/C was 78.8%.

And the viability, T/C (second compound 0.316 µM, first compound 3.16 µM)?
The viability, T/C was 95.9%.

What about the viability, T/C (second compound 0.316 µM, first compound 10 µM) of the same compound?
Its viability, T/C is 92.1%.

And the viability, T/C (second compound 1 µM, first compound 0.0316 µM)?
The viability, T/C was 88.1%.

What about the viability, T/C (second compound 1 µM, first compound 0.1 µM) of the same compound?
Its viability, T/C is 90.4%.

And the viability, T/C (second compound 1 µM, first compound 0.316 µM)?
Its viability, T/C is 94.7%.

What about the viability, T/C (second compound 1 µM, first compound 1 µM) of the same compound?
The viability, T/C was 89.5%.

And the viability, T/C (second compound 1 µM, first compound 3.16 µM)?
Its viability, T/C is 87.6%.

What about the viability, T/C (second compound 1 µM, first compound 10 µM) of the same compound?
Its viability, T/C is 84.1%.

And the viability, T/C (second compound 3.16 µM, first compound 0.0316 µM)?
Its viability, T/C is 78%.

What about the viability, T/C (second compound 3.16 µM, first compound 0.1 µM) of the same compound?
The viability, T/C was 79%.

And the viability, T/C (second compound 3.16 µM, first compound 0.316 µM)?
Its viability, T/C is 84.5%.

What about the viability, T/C (second compound 3.16 µM, first compound 1 µM) of the same compound?
Its viability, T/C is 77.6%.

And the viability, T/C (second compound 3.16 µM, first compound 3.16 µM)?
Its viability, T/C is 81.5%.

And the viability, T/C (second compound 3.16 µM, first compound 10 µM)?
Its viability, T/C is 86.8%.

And the viability, T/C (second compound 10 µM, first compound 0.0316 µM)?
Its viability, T/C is 86.3%.

What about the viability, T/C (second compound 10 µM, first compound 0.1 µM) of the same compound?
The viability, T/C was 75.6%.

And the viability, T/C (second compound 10 µM, first compound 0.316 µM)?
The viability, T/C was 67.9%.

What about the viability, T/C (second compound 10 µM, first compound 1 µM) of the same compound?
The viability, T/C was 82.8%.

What about the viability, T/C (second compound 10 µM, first compound 3.16 µM) of the same compound?
The viability, T/C was 81.7%.

What about the viability, T/C (second compound 10 µM, first compound 10 µM) of the same compound?
Its viability, T/C is 79.3%.

Which IC50 (second compound 0.1 µM) does the source give for `Nc1ncn(C2CC(O)C(CO)S2)c(=O)n1` (stereo not given) + Cc1ccccc1N=Nc1ccc(NC(=O)c2ccnn2C)c(C)c1 here?
Its IC50 is greater than 0.3 µM.

What about the IC50 (second compound 0.316 µM) of the same compound?
The IC50 was greater than 0.3 µM.

What about the IC50 (second compound 1 µM) of the same compound?
Its IC50 is greater than 0.3 µM.

And the IC50 (second compound 3.16 µM)?
Its IC50 is greater than 0.3 µM.

And the IC50 (second compound 10 µM)?
The IC50 was greater than 0.3 µM.

And the viability, T/C (second compound 0.1 µM, first compound 0.000949 µM)?
The viability, T/C was 103%.

And the viability, T/C (second compound 0.1 µM, first compound 0.003 µM)?
The viability, T/C was 105%.

And the viability, T/C (second compound 0.1 µM, first compound 0.00949 µM)?
Its viability, T/C is 94.5%.

And the viability, T/C (second compound 0.1 µM, first compound 0.03 µM)?
The viability, T/C was 91.5%.

And the viability, T/C (second compound 0.1 µM, first compound 0.0949 µM)?
Its viability, T/C is 94.8%.

What about the viability, T/C (second compound 0.1 µM, first compound 0.3 µM) of the same compound?
The viability, T/C was 97.2%.

What about the viability, T/C (second compound 0.316 µM, first compound 0.000949 µM) of the same compound?
Its viability, T/C is 102%.

And the viability, T/C (second compound 0.316 µM, first compound 0.003 µM)?
The viability, T/C was 93.9%.

And the viability, T/C (second compound 0.316 µM, first compound 0.00949 µM)?
The viability, T/C was 92.7%.

What about the viability, T/C (second compound 0.316 µM, first compound 0.03 µM) of the same compound?
Its viability, T/C is 93.9%.

And the viability, T/C (second compound 0.316 µM, first compound 0.0949 µM)?
Its viability, T/C is 101%.

And the viability, T/C (second compound 0.316 µM, first compound 0.3 µM)?
Its viability, T/C is 111%.

What about the viability, T/C (second compound 1 µM, first compound 0.000949 µM) of the same compound?
The viability, T/C was 99.3%.

And the viability, T/C (second compound 1 µM, first compound 0.003 µM)?
The viability, T/C was 89.3%.

What about the viability, T/C (second compound 1 µM, first compound 0.00949 µM) of the same compound?
Its viability, T/C is 80.5%.

And the viability, T/C (second compound 1 µM, first compound 0.03 µM)?
The viability, T/C was 98.7%.

What about the viability, T/C (second compound 1 µM, first compound 0.0949 µM) of the same compound?
The viability, T/C was 88%.

What about the viability, T/C (second compound 1 µM, first compound 0.3 µM) of the same compound?
Its viability, T/C is 82.5%.

What about the viability, T/C (second compound 3.16 µM, first compound 0.000949 µM) of the same compound?
The viability, T/C was 82.5%.

And the viability, T/C (second compound 3.16 µM, first compound 0.003 µM)?
The viability, T/C was 85.7%.

What about the viability, T/C (second compound 3.16 µM, first compound 0.00949 µM) of the same compound?
The viability, T/C was 86.6%.

What about the viability, T/C (second compound 3.16 µM, first compound 0.03 µM) of the same compound?
Its viability, T/C is 76.1%.

What about the viability, T/C (second compound 3.16 µM, first compound 0.0949 µM) of the same compound?
The viability, T/C was 78.6%.

What about the viability, T/C (second compound 3.16 µM, first compound 0.3 µM) of the same compound?
The viability, T/C was 103%.

What about the viability, T/C (second compound 10 µM, first compound 0.000949 µM) of the same compound?
Its viability, T/C is 87%.

And the viability, T/C (second compound 10 µM, first compound 0.003 µM)?
The viability, T/C was 86.8%.

And the viability, T/C (second compound 10 µM, first compound 0.00949 µM)?
Its viability, T/C is 99%.

And the viability, T/C (second compound 10 µM, first compound 0.03 µM)?
The viability, T/C was 77.4%.

And the viability, T/C (second compound 10 µM, first compound 0.0949 µM)?
The viability, T/C was 85%.

And the viability, T/C (second compound 10 µM, first compound 0.3 µM)?
The viability, T/C was 96.9%.
